According to article PMC6226504, “Ca^2+ efflux via plasma membrane Ca^2+-ATPase mediates chemotaxis in ascidian sperm” (Scientific Reports, 2018):

Target: T1, plasma membrane Ca2+-ATPase (PMCA), Atp2b-var.b-mut3 (Ciona intestinalis, UniProt A0A3G9HPC9, R951A/H956A/H962A)
T1 construct: Atp2b-var.b-mut3, recombinant, in Sf9 cell membrane fraction
Assay: quartz crystal microbalance (QCM), mutant compared with wild-type membranes
Format: binding

T1 sequence (A0A3G9HPC9 1-1165 R951A/H956A/H962A): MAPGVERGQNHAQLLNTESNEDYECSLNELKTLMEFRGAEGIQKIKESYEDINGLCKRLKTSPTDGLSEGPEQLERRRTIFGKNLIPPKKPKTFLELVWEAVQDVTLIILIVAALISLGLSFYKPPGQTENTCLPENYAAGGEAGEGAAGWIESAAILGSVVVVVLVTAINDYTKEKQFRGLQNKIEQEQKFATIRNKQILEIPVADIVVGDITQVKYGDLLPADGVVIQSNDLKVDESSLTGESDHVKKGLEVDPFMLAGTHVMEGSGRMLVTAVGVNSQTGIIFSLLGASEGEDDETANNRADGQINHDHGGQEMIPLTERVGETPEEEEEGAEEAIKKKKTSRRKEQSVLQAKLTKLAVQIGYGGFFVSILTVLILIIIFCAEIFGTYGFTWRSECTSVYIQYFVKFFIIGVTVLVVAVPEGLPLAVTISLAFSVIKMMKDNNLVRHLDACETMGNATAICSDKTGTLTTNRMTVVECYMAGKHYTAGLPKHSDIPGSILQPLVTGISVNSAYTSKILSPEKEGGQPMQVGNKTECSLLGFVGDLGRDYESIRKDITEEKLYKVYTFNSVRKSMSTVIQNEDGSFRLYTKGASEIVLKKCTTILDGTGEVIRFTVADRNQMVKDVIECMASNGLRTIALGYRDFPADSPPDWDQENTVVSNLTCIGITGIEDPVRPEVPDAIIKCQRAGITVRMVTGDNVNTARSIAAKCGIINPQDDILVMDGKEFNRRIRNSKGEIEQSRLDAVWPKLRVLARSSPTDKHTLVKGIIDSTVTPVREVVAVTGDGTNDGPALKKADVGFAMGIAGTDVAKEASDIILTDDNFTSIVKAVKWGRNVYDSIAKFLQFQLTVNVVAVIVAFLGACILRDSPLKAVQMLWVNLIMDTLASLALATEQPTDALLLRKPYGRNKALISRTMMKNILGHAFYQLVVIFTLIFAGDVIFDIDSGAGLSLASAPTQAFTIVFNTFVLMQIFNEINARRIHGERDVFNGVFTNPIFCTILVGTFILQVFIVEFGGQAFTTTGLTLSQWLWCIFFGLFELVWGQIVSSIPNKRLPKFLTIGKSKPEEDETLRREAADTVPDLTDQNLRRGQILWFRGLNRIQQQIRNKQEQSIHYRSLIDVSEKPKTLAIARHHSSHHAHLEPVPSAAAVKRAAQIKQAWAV

C[C@@H](CCC[C@@H](C)[C@H]1CC[C@H]2[C@@H]3[C@H](O)C[C@H]4[C@@H](O)[C@H](OS(=O)(=O)O)CC[C@]4(C)[C@H]3CC[C@]12C)COS(=O)(=O)O [SAAF]
quartz crystal microbalance (QCM), mutant compared with wild-type membranes: Atp2b-var.b-mut3 showed the same interaction compared to the wild-type
